{"source": "patent US8466130B2", "about": "“Mitochondria targeted cationic anti-oxidant compounds for prevention, therapy or treatment of hyper-proliferative disease, neoplasias and cancers” (Colby Pharmaceutical Company, priority 2009, dated 2013)", "key": {"[1]": {"tested_on": "LNCaP cells", "test": "Hoechst dye-DNA fluorescence growth assay, LNCaP cells", "type": "cell-based, human", "conditions": "varying concentrations (FIG. 8)", "description": "(§1) For DNA assay, each culture plate was thawed and equilibrated to room temperature under protection from light. Hoechst dye was then added to each well in 200 μL of high salt TNE buffer (10 mM Tris, 1 mM EDTA, 2 M NaCl [pH 7.4]) at a final concentration of 6.7 μg/mL. After further incubation at room temperature for 2 hours under protection from light, culture plates were scanned on the CytoFluor 2350™ scanner using the 360/460 nm filter excitation and emission set. The DNA fluorescence intensity was used as a measure of cell growth.\n(§2) The effects of varying concentrations of Mito-T drug on the growth of LNCaP and PC-3 cells over a period of 4 days was assayed using the Hoechst dye-DNA fluorescence assay described above. In these and all subsequent cell culture studies described below, each data point and its associated error bar are respectively, an average value and the standard deviation of data obtained from six wells of a 96-well plate run in duplicate in three separate sets of experiments."}, "[2]": {"tested_on": "PC-3 cells", "test": "Hoechst dye-DNA fluorescence growth assay, PC-3 cells", "type": "cell-based, human", "conditions": "varying concentrations (FIG. 8)", "description": "as §1, §2"}}, "data": [{"compound": "CC1(C)CC(OCCCCCCCCCC[P+](c2ccccc2)(c2ccccc2)c2ccccc2)CC(C)(C)N1[O]", "note": "[MitoT-10, [4-(10-triphenylphosphonium)decyloxy-2,2,6,6-tetramethylpiperidinyloxy, freeradical]bromide]", "values": [{"measurement": "growth and proliferation", "setting": "[1]", "value": "inhibitory effect"}, {"measurement": "growth and proliferation", "setting": "[2]", "value": "inhibitory effect"}]}]}
